These results are taken from a melting point compilation (Tetko et al.; mined from patent text by program, amines drawn as free bases though some values may be those of a salt).

Usually melting point stands for the temperature of the solid-liquid transition.

Each structure is given as a SMILES string.

With `Cc1oc(-c2ccccc2)nc1COc1cccc(CON2C(=O)c3ccccc3C2=O)c1`, the melting point lay in the range of 146 to 147 °C.

`c1cnc(NC2CCN(C3CCCC3)CC2)nc1` registered a melting point of 118 °C. For `Brc1cccc(Oc2ccccc2)n1` the value was 83 to 86 °C; for `Cc1nn2ccccc2c1C(=O)C1=CNCCC1`, 207 to 208 °C. For `CCc1nn(CCO)c(CC)c1Oc1cc(C#N)cc(S(C)(=O)=O)c1` the value was 133 °C. For `COC(=O)c1cc(O)c(N=Nc2ccccc2)c(O)c1` the value was 216 to 218 °C; for `CCCCc1noc(-c2ccccc2)c1-c1ccc(S(N)(=O)=O)cc1`, 150 °C. Molecule `O=C(O)C(=NOc1ccccc1)c1ccccc1` gave a melting point of 105 °C.

On to `O=C1COC(=O)N1C(c1ccccc1)(c1ccccc1)c1ccccc1`, for which the melting point fell in the range of 216 to 218 °C. For the molecule `COC(=O)c1ccccc1OCC(O)CNCCNC(=O)C(C)C` (stereo unspecified), the melting point fell in the range of 128 to 129 °C. Under `COc1ccc2cc(C3CCN(C[C@H](O)COc4cccc5oc(-c6nnc(C)o6)cc45)CC3)ccc2c1` stands 156 to 158 °C; under `CCCCC(C)(C)C(O)CCN1C(=O)NC(=O)C1CCCCCCC(=O)O` (stereo unspecified), 90 to 98 °C. For `CCCCCCCCCCCCOC(=O)CC(O)C(=O)OCCCCCCCCCCCC` (stereo unspecified) the value was 27 to 30 °C; for `COc1cc(C=O)c(F)cc1Cl`, 120 to 122 °C.

As for `COc1ccc2cc(C(=O)C(C)(C)c3ccccc3)oc2c1`, the melting point was in the range of 93 to 95 °C.

In turn, `CN(C)CCCNC(=O)Cn1cnc(-c2ccccc2)c1-c1ccccc1` gave a melting point of 92 to 94 °C. For `COC=C1C(=O)N(OCc2ccccc2)C(=O)c2ccccc21` the value was 161 to 162 °C; for `CCOC(=O)c1ccc(CN2CCN(C(=O)OC(C)(C)C)C(C(N)=O)C2)c(C(F)(F)F)c1` (stereo unspecified), 124 to 125 °C; for `CCCc1cn(CC(=O)OCC)nc1OCc1ccc2ccccc2n1`, 82 to 83 °C. Under `Cc1nc(C)c(C=O)c(N)n1` stands 148 to 156 °C; under `CCNc1cc(-c2c[nH]c(C)n2)ccn1`, 214 to 216 °C; under `CC(C)(C)OC(=O)N1CCC2(C=Cc3ccccc32)CC1`, 128 °C. For `COC(=O)c1ccc(CNC(=O)c2ccc(C(=O)NO)s2)cc1` the value was 156 to 166 °C; for `Ic1ccc(SSc2ccc(I)cc2)cc1`, 122 to 123 °C; for `CC(C)(C)OC(=O)N1C(=O)[C@H](O)[C@@H]1C1CCCCC1`, 121 to 122 °C. Take `CCN(CC)C(=O)C=Cc1ccc(Cl)c(Cl)c1`: the melting point was 60.7 °C. For `CCOc1c(C(=O)OCC(C)(C)C(=O)C(C)(C)C)oc2ccc(OC)cc12` the value was 105 to 106 °C; for `CC(C)(C)c1cc(CN2CC(O)C2)cc(C(C)(C)C)c1O`, 139 to 142 °C; for `COc1ccc(-c2ccc(NC(=O)CCc3ccc(CN4CCCC4)cc3)cc2)cc1`, 185 to 188 °C. On to `C/C(=C\c1ccccc1)CNc1cccc(-c2ccnc3c(C(=O)c4cccs4)cnn23)c1`, for which the melting point was 74 to 76 °C.

The molecule `OCC1Cc2cc(F)cc(Br)c2O1` (stereo unspecified) returned a melting point of 53 to 57 °C. Under `Nc1ccc(NCCCNc2cccc3c2C(=O)c2ccccc2C3=O)cc1` stands 183 to 185 °C; under `CNS(=O)(=O)c1ccccc1Nc1nc(Nc2ccc3c(c2)COC[C@@H]2CCCN32)ncc1Cl`, 187 to 188 °C.

Molecule `CC(C)C(NC(=O)OCc1ccccc1)C(=O)NC(Cc1ccc(OCCN2CCOCC2)cc1)C(=O)C(F)(F)C(=O)NCc1ccccc1` (stereo unspecified) displayed a melting point of 142 °C. For the molecule `CCCc1c(OCCC2Cc3cc(CC(=O)OC)ccc3O2)ccc(C(C)=O)c1O` (stereo unspecified), the melting point lay within 59 to 60 °C. The molecule `COc1ccc(Br)cc1CN1CCC(=O)C(C(c2ccc(F)cc2)c2ccc(F)cc2)C1` (stereo unspecified) registered a melting point of 129 to 130 °C. Consider `CSc1c(Cl)ccc(C(=O)O)c1SC`, for which the melting point is 130 to 131 °C.

On to `Cc1nnc(Cl)c2cc(O)ccc12`, for which the melting point was > 260 °C.

Turning to `CCN(CC)CC1CCCCN1CCNC(=O)N1c2ccc(Cl)cc2C(=O)Nc2cccnc21` (stereo unspecified), the melting point was in the range of 138 to 140 °C. For the molecule `CC(=O)Nc1ccc2nc(-c3ccccc3)cc(OCC(=O)N3CCOCC3)c2c1`, the melting point worked out at 261 °C.

Regarding `COc1ccc2cc(-c3nn(C)c4cc(OC)ccc34)ccc2c1`, the melting point was in the range of 166 to 168 °C. For `C[Si](C)(C)N1Cc2ccccc2P1(=O)c1ccccc1` (stereo unspecified) the value was 90 to 94 °C; for `FC(F)(F)c1nc2nc(Cl)c(Cl)cc2[nH]1`, 222 to 224 °C; for `CN(C)CCSc1ccc2nccn2n1`, 52 to 54 °C. Under `CS(=O)(=O)c1ccc(C2=C(c3ccc(F)cc3)CC3(CC3)C2)cc1` stands 140 to 142 °C. Under `CS(=O)(=O)c1ccc(-c2cnn(CC(F)(F)F)c(=O)c2NCC2CC2)cc1` stands 145 to 146 °C; under `CC(=O)NC[C@H]1CN(c2ccc(-n3nccc3-c3ccc(Br)cc3)c(F)c2)C(=O)O1`, 96.8 to 98.8 °C.

`O=C(O)[C@H](Oc1c(Br)cc(-c2c3ccccc3c(Br)c3sc4ccccc4c23)cc1Br)c1ccccc1` came in with a melting point of 135 to 137 °C. For `Cc1cn(C(C(=O)N(C)C)C2CCCCC2)nc1-c1ccccc1` (stereo unspecified) the value was 102 to 104 °C. For `CS(=O)(=O)Nc1ccc(OC2CCCC2)cc1` the value was 140 to 142 °C; for `CSc1nc(N)nc(SC)c1-c1ccc(Cl)cc1Cl`, 164 to 165 °C; for `N#C/C=C/c1cn(-c2c(Cl)cc(C(F)(F)F)cc2Cl)nc1C#N`, 144 to 145 °C. Under `CCOCn1c(-c2ccc(Cl)cc2)c(C#N)c(Sc2ccc(Cl)c(Cl)c2)c1C(F)(F)F` stands 75 to 77 °C.

`CC(C)Nc1ccc(C#Cc2cc(C(=O)Nc3ccc(CN4CCN(C)CC4)c(C(F)(F)F)c3)ccc2Cl)nn1` showed a melting point of 133 to 134 °C. Under `O=C(O)C1CCc2ccccc2O1` (single isomer, unassigned; (+)) stands 85.5 °C; under `CNC(=O)C1=CC(C)(C(F)(F)F)Oc2ccc([N+](=O)[O-])cc21` (stereo unspecified), 196 to 197 °C. Under `CCOC(=O)CCc1cc(C(=O)c2cccc(C(=O)OCC)c2)ccc1O` stands 68 to 70 °C; under `COCCOC(=O)C1=C(C)Nc2nc(N3CCOCC3)nc(N3CCOCC3)c2C1c1cccc([N+](=O)[O-])c1` (stereo unspecified), 172 °C; under `COc1ccc(CCNC(=O)C(=O)Nc2ccncc2)cc1OC1CCCC1`, 182 °C. Under `CN1CCN(c2ccc(Nc3ncc4ccc(-c5ccccc5OCC#N)n4n3)cc2)CC1` stands 95 to 101 °C. Molecule `Cn1c(=O)c(-c2c(Cl)cccc2Cl)cc2cnc(NCc3ccccn3)nc21` yielded a melting point of 198 to 201 °C.

Molecule `CNC1CCCN(C(=O)c2ccc(NC(=O)c3ccccc3C)s2)c2ccc(Cl)cc21` (stereo unspecified) showed a melting point of 213 to 216 °C. For `Cc1nc(N2CCN(Cc3ccc(OC(F)(F)F)cc3)C2=O)sc1C(N)=O` the value was 185 to 187 °C; for `Cc1ccsc1C(Cc1ccccc1O)N(C)C=O` (stereo unspecified), 142 to 144 °C; for `N#C[C@@H]1C[C@H](F)CN1C(=O)CCl`, 97 to 100 °C. Under `c1ccc(Oc2ccc(-c3nc(-c4ccccc4)c(-c4ccccc4)o3)cc2)cc1` stands 125 to 126 °C; under `Cc1c(C(=O)O)sc(=O)c2ccccc12`, 243 to 245 °C; under `CCc1cccc(C)c1N(CN1CCOC1=O)C(=O)CCl`, 101 to 102 °C. Molecule `O=C1Nc2ccccc2Sc2ccccc21` had a melting point of 258 to 259 °C.

The molecule `CNc1ccc(-c2nc3ccc(F)cc3s2)cc1` registered a melting point of 154 °C. For `O=C1CCC(N2Cc3c(CNC(=O)NCc4ccccc4)cccc3C2=O)C(=O)N1` (stereo unspecified) the value was 304 to 306 °C; for `Cc1c(O)cc(O)cc1C(=O)OCc1ccc([N+](=O)[O-])cc1`, 160 to 163 °C; for `CC(=O)N1CC=C(C2=C(C#N)C(c3cccc4nonc34)c3c[nH]nc3N2)CC1` (stereo unspecified), 237 °C. Under `COC(=O)c1ccc2nnc(C(=O)NCc3ccc(Cl)cc3)c(O)c2c1` stands 308 to 310 °C; under `COC(=O)C(=O)Cc1ccc(SC)cc1`, 112 to 113 °C. Under `O=C1CC(c2cccc(-n3ccnn3)c2)=Nc2ccc(C#Cc3ccc(F)cc3)cc2N1` stands 246 to 248 °C. The molecule `CC(C)(CO)CCCCCCCCCCCC(O)(CC(=O)O)CC(=O)O` gave a melting point of 102 to 103 °C.

The molecule `CN1CCN(c2cc3c(Br)cccc3c(=O)[nH]2)CC1` returned a melting point of 240 to 241 °C.

In turn, `OCc1cccc2oc3c(c12)CCCC3` yielded a melting point of 43 to 45 °C. Under `O=C(O)c1cccc2cc(Oc3cc(Cl)ncn3)ccc12` stands 194 to 195 °C; under `C#CCn1cc(C=O)c([N+](=O)[O-])c1`, 120 °C.

For `N#Cc1sc2ccc(Br)cc2c1-c1ccccc1`, the melting point lay within 145 to 146 °C.

`Cn1c(Br)nc2c1C(=O)N1CCN=C1N2Cc1ccc(Cl)cc1`: the melting point was 206 to 207 °C. Regarding `Cc1cc2ccccn2c1C(=O)c1ccc([N+](=O)[O-])cc1`, the melting point worked out at 149 °C. In turn, `COC(=O)CCCc1cc2nc(Cl)ccc2n1S(=O)(=O)c1cccc(Cl)c1` returned a melting point of 107 °C.

`COc1cc(OC)cc(C(C)N(C)CCCOc2ccc(S(=O)(=O)c3c(C(C)C)c4ccccc4n3C)cc2)c1` (stereo unspecified) gave a melting point of 156 °C.

Molecule `CCOC(=O)c1cn(Cc2ccc(OCc3ccccc3)cc2)nc1-c1ccc(F)cc1` displayed a melting point of 103 to 104 °C.

On to `O=C1C(=O)N(Cc2ccc(Br)cc2F)c2c1cccc2C(F)(F)F`, for which the melting point was in the range of 141 to 143 °C. Under `Cc1noc(=O)c2ccc(N)cc12` stands 291 to 296 °C; under `Cc1ccc(-c2ccc(/C=C/C(=O)O)s2)cc1`, 223 to 225 °C. Under `Cc1ccccc1NC(=O)N[C@H]1C[C@@](N)(C(=O)O)[C@@H]2[C@@H](C(=O)O)[C@@H]21` (relative stereo) stands > 250 °C.
